What was measured:
[1] = molecular target: T1, Oxysterols receptor LXR-alpha (Homo sapiens, UniProt Q13133); experiment: Displacement of [3H2]F3-methylAA from human LXRalpha expressed in Escherichia coli BL21 cells by scintillation proximity assay
T1 sequence (Q13133 whole entry): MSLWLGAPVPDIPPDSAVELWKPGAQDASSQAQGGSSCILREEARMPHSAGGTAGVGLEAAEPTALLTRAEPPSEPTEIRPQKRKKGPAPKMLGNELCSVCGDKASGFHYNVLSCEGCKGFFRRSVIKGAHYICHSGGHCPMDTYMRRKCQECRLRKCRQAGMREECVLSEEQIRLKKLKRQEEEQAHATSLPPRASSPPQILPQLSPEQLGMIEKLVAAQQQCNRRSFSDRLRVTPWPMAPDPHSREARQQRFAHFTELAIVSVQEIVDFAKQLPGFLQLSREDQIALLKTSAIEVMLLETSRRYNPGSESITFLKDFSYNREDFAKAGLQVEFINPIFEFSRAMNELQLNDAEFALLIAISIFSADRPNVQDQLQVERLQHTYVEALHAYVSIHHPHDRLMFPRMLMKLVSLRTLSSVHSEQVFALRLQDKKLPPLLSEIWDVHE

[2] = molecular target: T2, Oxysterols receptor LXR-beta (Homo sapiens, UniProt P55055); experiment: Displacement of [3H2]F3-methylAA from human LXRbeta expressed in Escherichia coli BL21 cells by scintillation proximity assay
T2 sequence (P55055 whole entry): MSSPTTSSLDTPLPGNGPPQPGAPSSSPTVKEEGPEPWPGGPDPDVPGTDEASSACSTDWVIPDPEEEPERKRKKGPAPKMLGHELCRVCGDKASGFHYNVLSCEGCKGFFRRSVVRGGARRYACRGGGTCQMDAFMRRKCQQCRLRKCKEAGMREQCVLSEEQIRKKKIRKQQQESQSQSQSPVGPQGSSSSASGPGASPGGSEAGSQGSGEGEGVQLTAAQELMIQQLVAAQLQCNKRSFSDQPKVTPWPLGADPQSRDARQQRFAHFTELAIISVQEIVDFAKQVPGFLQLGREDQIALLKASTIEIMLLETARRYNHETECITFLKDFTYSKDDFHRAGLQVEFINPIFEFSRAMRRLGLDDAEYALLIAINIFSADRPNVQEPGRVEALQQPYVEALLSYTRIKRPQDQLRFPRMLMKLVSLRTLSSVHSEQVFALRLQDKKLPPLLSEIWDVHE

[3] = molecular target: Liver X receptor (LXR alpha AND LXR beta) (Homo sapiens) (UniProt Q13133+P55055); experiment: Selectivity ratio of IC50 for human LXRbeta to IC50 for human LXRalpha; type: protein assay

IC50 [1]: 3.4 µM | IC50 [2]: > 15 µM | Ratio IC50 [3]: 5
SMILES: CC(C)=CCC/C(C)=C/C[C@H]1C[C@]2(CC=C(C)C)C(=O)[C@@](CC=C(C)C)(C(=O)C(C(=O)c3ccc(O)c(O)c3)=C2O)[C@]1(C)CCC=C(C)C [GUTTIFERONE I]
